# Test results: ChEMBL document CHEMBL3112524, “Rigid spiroethers targeting the decoding center of the bacterial ribosome” (Bioorg Med Chem, 2014)
# Active and inactive are the calls of the source. The rule behind the calls is not given here.
# What was measured:
# [1] = target: Bacterial 70S ribosome; assay: Binding affinity to Escherichia coli ribosome assessed as inhibition of transcription-translation activity preincubated for 30 mins followed by substrate addition measured after 5 mins by luciferase assay
# [2] = Binding affinity to 2AP-labelled duplex RNA (unknown origin) by fluorescence spectrophotometric analysis
# [3] = test system: Pseudomonas aeruginosa; assay: Antibacterial activity against Pseudomonas aeruginosa ATCC 27853 assessed as growth inhibition after 18 hrs by geometric microdilution method; format: functional
# [4] = test system: Staphylococcus aureus; assay: Antibacterial activity against Staphylococcus aureus ATCC 29213 assessed as growth inhibition after 18 hrs by geometric microdilution method; format: functional
# [5] = test system: Escherichia coli; assay: Antibacterial activity against kanamycin-resistant Escherichia coli K-12 JW 0451-2 harboring acrB747 deletion mutant assessed as growth inhibition after 18 hrs by geometric microdilution method; format: functional; conditions: K-12 JW 0451-2, 18 h
# [6] = test system: Escherichia coli; assay: Antibacterial activity against kanamycin-resistant Escherichia coli K-12 JW 5503-1 harboring tolc732 deletion mutant assessed as growth inhibition after 18 hrs by geometric microdilution method; format: functional; conditions: K-12 JW 5503-1, 18 h
# [7] = test system: Escherichia coli; assay: Antibacterial activity against kanamycin-resistant Escherichia coli K-12 JW 3596-1 harboring rfaC733 deletion mutant assessed as growth inhibition after 18 hrs by geometric microdilution method; format: functional; conditions: K-12 JW 3596-1, 18 h
# [8] = test system: Escherichia coli; assay: Antibacterial activity against Escherichia coli ATCC 25922 assessed as growth inhibition after 18 hrs by geometric microdilution method; format: functional
compound,measurement,setting,value
N[C@@H](Cc1ccc(O)cc1)C(=O)N[C@@H]1C[C@H](N)[C@@]2(CC[C@H](O)[C@H](O)CO2)[C@H](O)[C@H]1O,IC50,[1],450 µM
NCCCC[C@H](N)CN[C@@H]1C[C@H](N)[C@@]2(C[C@H](O)[C@H](O)CO2)[C@H](O)[C@H]1O,EC50,[2],0.15 µM
same,IC50,[1],540 µM
N[C@@H]1C[C@H](N)[C@@]2(CC[C@@H](CNC(=O)[C@@H]3CCCN3)O2)[C@H](O)[C@H]1O,EC50,[2],0.68 µM
same,IC50,[1],156 µM
N[C@@H]1C[C@H](N)[C@@]2(CC[C@@H](CNC(=O)[C@@H](N)Cc3cnc[nH]3)O2)[C@H](O)[C@H]1O,EC50,[2],1.6 µM
same,IC50,[1],172 µM
N[C@@H]1C[C@H](N)[C@@]2(CC[C@H](O)[C@H](O)CO2)[C@H](O)[C@H]1O,EC50,[2],74 µM
NCCCC[C@H](N)C(=O)N[C@@H]1C[C@H](N)[C@@]2(CC[C@H](O)[C@H](O)CO2)[C@H](O)[C@H]1O,EC50,[2],12 µM
NCC[C@H](O)CN[C@@H]1C[C@H](N)[C@@]2(CC[C@H](O)[C@H](O)CO2)[C@H](O)[C@H]1O,EC50,[2],0.93 µM
same,IC50,[1],> 600 µM
NCCCC[C@H](N)C(=O)NC[C@@H]1CC[C@@]2(O1)[C@H](O)[C@@H](O)[C@H](N)C[C@@H]2N,EC50,[2],1.4 µM
same,MIC,"[3]; ATCC 27853, 18 h",> 112 µg/mL
same,MIC,"[4]; ATCC 29213, 18 h",7.2 µg/mL
same,MIC,[5],> 112 µg/mL
same,IC50,[1],325 µM
same,MIC,[6],> 112 µg/mL
same,MIC,[7],112 µg/mL
same,MIC,"[8]; ATCC 25922, 18 h",> 112 µg/mL
NCCCC[C@H](N)CN[C@@H]1C[C@H](N)[C@@]2(CC[C@@H](O)[C@@H](O)CO2)[C@H](O)[C@H]1O,EC50,[2],0.65 µM
same,MIC,"[3]; ATCC 27853, 18 h",> 118 µg/mL
same,MIC,"[4]; ATCC 29213, 18 h",14.7 µg/mL
same,MIC,[5],118 µg/mL
same,IC50,[1],> 600 µM
same,MIC,[6],> 118 µg/mL
same,MIC,[7],> 118 µg/mL
same,MIC,"[8]; ATCC 25922, 18 h",236 µg/mL
N[C@@H]1C[C@H](N)[C@@]2(C[C@H](O)[C@H](O)CO2)[C@H](O)[C@H]1O,EC50,[2],6.5 µM
NCC[C@H](O)C(=O)N[C@@H]1C[C@H](N)[C@@]2(CC[C@H](O)[C@H](O)CO2)[C@H](O)[C@H]1O,EC50,[2],6.9 µM
NC[C@H]1O[C@H](O[C@H]2[C@H](O)[C@@H](O)[C@H](N)C[C@@H]2N)[C@H](N)[C@@H](O)[C@@H]1O [NEAMINE],EC50,[2],9.5 µM
same,MIC,"[3]; ATCC 27853, 18 h",73 µg/mL
same,MIC,"[4]; ATCC 29213, 18 h",5 µg/mL
same,MIC,[5],150 µg/mL
same,MIC,[6],300 µg/mL
same,MIC,[7],150 µg/mL
same,MIC,"[8]; ATCC 25922, 18 h",14 µg/mL
N[C@@H]1C[C@H](N)[C@@]2(CC[C@@H](CNC(=O)[C@@H](N)Cc3ccc(O)cc3)O2)[C@H](O)[C@H]1O,IC50,[1],> 600 µM
N[C@H](CN[C@@H]1C[C@H](N)[C@@]2(CC[C@H](O)[C@H](O)CO2)[C@H](O)[C@H]1O)Cc1ccc(O)cc1,MIC,[3],inactive
same,MIC,[4],inactive
same,MIC,[5],129 µg/mL
same,IC50,[1],> 600 µM
same,MIC,[6],> 129 µg/mL
same,MIC,[7],> 129 µg/mL
same,MIC,[8],inactive
N=C(N)NCCC[C@H](N)C(=O)NC[C@@H]1CC[C@@]2(O1)[C@H](O)[C@@H](O)[C@H](N)C[C@@H]2N,EC50,[2],1.5 µM
same,IC50,[1],98 µM
NCC[C@H](O)C(=O)N[C@@H]1C[C@H](N)[C@@]2(C[C@H](O)[C@H](O)CO2)[C@H](O)[C@H]1O,EC50,[2],12.6 µM
same,IC50,[1],> 600 µM
NC[C@@H]1O[C@H](O[C@H]2[C@@H](O)[C@H](O[C@@H]3[C@@H](O)[C@H](N)C[C@H](N)[C@H]3O[C@H]3O[C@H](CO)[C@@H](O)[C@H](O)[C@H]3N)O[C@@H]2CO)[C@H](N)[C@@H](O)[C@@H]1O [PAROMOMYCIN],MIC,"[3]; ATCC 27853, 18 h",113 µg/mL
same,MIC,"[4]; ATCC 29213, 18 h",4 µg/mL
same,MIC,[5],113 µg/mL
same,MIC,[6],113 µg/mL
same,MIC,[7],113 µg/mL
same,MIC,"[8]; ATCC 25922, 18 h",4 µg/mL
NCCCC[C@H](N)C(=O)N[C@@H]1C[C@H](N)[C@@]2(CC[C@@H](O)[C@@H](O)CO2)[C@H](O)[C@H]1O,EC50,[2],1.2 µM
same,IC50,[1],> 600 µM
N[C@H](CN[C@@H]1C[C@H](N)[C@@]2(CC[C@@H](O)[C@@H](O)CO2)[C@H](O)[C@H]1O)Cc1ccc(O)cc1,IC50,[1],> 600 µM
NCCCC[C@H](N)C(=O)N[C@@H]1C[C@H](N)[C@@]2(C[C@H](O)[C@H](O)CO2)[C@H](O)[C@H]1O,EC50,[2],0.89 µM
same,IC50,[1],350 µM
NCC[C@H](O)C(=O)N[C@@H]1C[C@H](N)[C@@]2(CC[C@@H](O)[C@@H](O)CO2)[C@H](O)[C@H]1O,EC50,[2],0.39 µM
same,IC50,[1],> 600 µM
N[C@@H]1C[C@H](N)[C@@]2(CC[C@@H](CNC(=O)[C@@H](N)Cc3c[nH]c4ccccc34)O2)[C@H](O)[C@H]1O,MIC,"[3]; ATCC 27853, 18 h",65 µg/mL
same,MIC,"[4]; ATCC 29213, 18 h",8.4 µg/mL
same,MIC,[5],32.5 µg/mL
same,IC50,[1],149 µM
same,MIC,[6],131 µg/mL
same,MIC,[7],> 131 µg/mL
same,MIC,"[8]; ATCC 25922, 18 h",98 µg/mL
N[C@@H](Cc1ccc(O)cc1)C(=O)N[C@@H]1C[C@H](N)[C@@]2(C[C@H](O)[C@H](O)CO2)[C@H](O)[C@H]1O,IC50,[1],> 600 µM
N[C@@H](Cc1ccc(O)cc1)C(=O)N[C@@H]1C[C@H](N)[C@@]2(CC[C@@H](O)[C@@H](O)CO2)[C@H](O)[C@H]1O,IC50,[1],> 600 µM
NCCCC[C@H](N)CN[C@@H]1C[C@H](N)[C@@]2(CC[C@H](O)[C@H](O)CO2)[C@H](O)[C@H]1O,EC50,[2],0.09 µM
same,MIC,"[3]; ATCC 27853, 18 h",> 118 µg/mL
same,MIC,"[4]; ATCC 29213, 18 h",3.8 µg/mL
same,MIC,[5],118 µg/mL
same,IC50,[1],100 µM
same,MIC,[6],118 µg/mL
same,MIC,[7],> 118 µg/mL
same,MIC,"[8]; ATCC 25922, 18 h",236 µg/mL
N[C@@H]1C[C@H](N)[C@@]2(CC[C@@H](O)[C@@H](O)CO2)[C@H](O)[C@H]1O,EC50,[2],141 µM
